Test results reported in US10150760B2, “Compounds for use in preparing heterocyclic triazole agonists of the APJ receptor” (AMGEN INC., priority 2016, dated 2018).

Biological target: human APJ receptor (Homo sapiens (Human), UniProt P35414)
Experiment: [35S]GTPγS binding assay on membranes from CHO cells stably expressing human APJ receptor
Type: biochemical
Settings: read-out: Activity hAPJ SPA EC50 IP
In short: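 Membranes from CHO cells stably expressing human APJ incubated with ligand, 0.2 nM [35S]GTPγS and WGA SPA beads in HEPES pH 7.5 with 5 mM MgCl2, 200 mM NaCl, 3 μM GDP, 90 min at RT. Nonspecific binding defined with 100 μM GTPγS; EC50 by non-linear regression.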

human APJ receptor, sequence (P35414 whole entry): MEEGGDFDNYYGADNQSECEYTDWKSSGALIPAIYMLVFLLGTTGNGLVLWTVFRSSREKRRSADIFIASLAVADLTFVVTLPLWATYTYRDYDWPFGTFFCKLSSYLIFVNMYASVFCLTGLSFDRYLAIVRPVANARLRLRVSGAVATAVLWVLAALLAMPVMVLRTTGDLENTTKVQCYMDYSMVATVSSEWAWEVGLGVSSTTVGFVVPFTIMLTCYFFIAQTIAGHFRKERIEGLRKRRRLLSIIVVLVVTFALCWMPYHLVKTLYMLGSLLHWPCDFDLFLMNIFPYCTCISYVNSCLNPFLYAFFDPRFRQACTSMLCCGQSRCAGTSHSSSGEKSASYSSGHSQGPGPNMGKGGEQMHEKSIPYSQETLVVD

| Substance | EC50 [nM] |
| --- | --- |
| (2S,3R)-3-(5-chloropyrimidin-2-yl)-N-(4-(2,6-dimethoxyphenyl)-5-((R)-1,1-dioxidotetrahydrothiophen-3-yl)-4H-1,2,4-triazol-3-yl)butane-2-sulfonamide or (2S,3R)-3-(5-chloropyrimidin-2-yl)-N-(4-(2,6-dimethoxyphenyl)-5-((S)-1,1-dioxidotetrahydrothiophen-3-yl)-4H-1,2,4-triazol-3-yl)butane-2-sulfonamide [Example 189.0] | 200 |
| (2S,3R)-3-(5-chloropyrimidin-2-yl)-N-(4-(2,6-dimethoxyphenyl)-5-((R)-1,1-dioxidotetrahydrothiophen-3-yl)-4H-1,2,4-triazol-3-yl)butane-2-sulfonamide or (2S,3R)-3-(5-chloropyrimidin-2-yl)-N-(4-(2,6-dimethoxyphenyl)-5-((S)-1,1-dioxidotetrahydrothiophen-3-yl)-4H-1,2,4-triazol-3-yl)butane-2-sulfonamide [Example 190.0] | 300 |
| (2S,3R)-3-(5-chloropyrimidin-2-yl)-N-(4-(2,6-dimethoxyphenyl)-5-((R)-3-oxoisoindolin-1-y1)-4H-1,2,4-triazol-3-yl)butane-2-sulfonamide or (2S,3R)-3-(5-chloropyrimidin-2-yl)-N-(4-(2,6-dimethoxyphenyl)-5-((S)-3-oxoisoindolin-1-yl)-4H-1,2,4-triazol-3-yl)butane-2-sulfonamide [Example 235.0] | 830 |
| (2S,3R)-3-(5-chloropyrimidin-2-yl)-N-(4-(2,6-dimethoxyphenyl)-5-((S)-3-oxoisoindolin-1-yl)-4H-1,2,4-triazol-3-yl)butane-2-sulfonamide or (2S,3R)-3-(5-chloropyrimidin-2-yl)-N-(4-(2,6-dimethoxyphenyl)-5-((R)-3-oxoisoindolin-1-yl)-4H-1,2,4-triazol-3-yl)butane-2-sulfonamide [Example 234.0] | 230 |
| (2S,3R)-3-(5-chloropyrimidin-2-yl)-N-(4-(3,5-dibromo-2,6-dimethoxyphenyl)-5-((R)-tetrahydrofuran-3-yl)-4H-1,2,4-triazol-3-yl)butane-2-sulfonamide or (2S,3R)-3-(5-chloropyrimidin-2-yl)-N-(4-(3,5-dibromo-2,6-dimethoxyphenyl)-5-((S)-tetrahydrofuran-3-yl)-4H-1,2,4-triazol-3-yl)butane-2-sulfonamide [Example 331.0] | 3500 |

Other lines, results leading:

| EC50 [nM] | Substance |
| --- | --- |
| 8 | (2S,3R)-3-(5-chloro-2-pyridinyl)-N-(4-(1,3-dimethoxy-2-propanyl)-5-((2R,5R)-5-methyltetrahydro-2-furanyl)-4H-1,2,4-triazol-3-yl)-2-butanesulfonamide or (2S,3R)-3-(5-chloro-2-pyridinyl)-N-(4-(1,3-dimethoxy-2-propanyl)-5-((2S,5S)-5-methyltetrahydro-2-furanyl)-4H-1,2,4-triazol-3-yl)-2-butanesulfonamide [Example 373.0] |
| 5.6 | (2S,3R)-3-(5-chloro-2-pyrimidinyl)-N-(4-(1,3-dimethoxy-2-propanyl)-5-((2R,5R)-5-methyltetrahydro-2-furanyl)-4H-1,2,4-triazol-3-yl)-2-butanesulfonamide or (2S,3R)-3-(5-chloro-2-pyrimidinyl)-N-(4-(1,3-dimethoxy-2-propanyl)-5-((2S,5S)-5-methyltetrahydro-2-furanyl)-4H-1,2,4-triazol-3-yl)-2-butanesulfonamide [Example 374.0] |
| 52 | (2S,3R)-3-(5-chloropyrimidin-2-yl)-N-(4-(4,6-dimethoxypyrimidin-5-yl)-5-((R)-5,5-dimethyltetrahydrofuran-3-yl)-4H-1,2,4-triazol-3-yl)butane-2-sulfonamide or (2S,3R)-3-(5-chloropyrimidin-2-yl)-N-(4-(4,6-dimethoxypyrimidin-5-yl)-5-((S)-5,5-dimethyltetrahydrofuran-3-yl)-4H-1,2,4-triazol-3-yl)butane-2-sulfonamide [Example 317.0] |
